Results published in patent US9115151B2, “Substituted 2,10-dihydro-9-oxa-1,2,4A-triazaphenanthren-3-ones and uses thereof” (AbbVie Inc., priority 2012, dated 2015).
Counter-ions that a name gives are not always drawn.

Tests used:
[1] = system: CD3/CD28 induced IL-2 in human T-Blasts; assay: T-Blasts CD3/CD28 induced IL-2 assay; type: cell-based; settings: read-out: CD3/CD28-stimulated IL2 in T-blasts EC50
Outline: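 PHA-generated human T-blasts, 2×10^5 per well, preincubated 30 min with 8-point 1/3 compound dilutions in duplicate, then stimulated with anti-CD3+anti-CD28 (5 μg/mL final) for 24 h at 37° C. Supernatant IL-2 measured; MTT toxicity run on remaining cells.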

PKCα = target: T1, PKCα (Homo sapiens, UniProt P17252); assay: In vitro enzyme assay (time-resolved fluorescence kinase assay), PKCα, 100 μM ATP; type: biochemical; settings: 100 μM ATP; read-out: PKCα enzyme IC50
T1 construct: His6; purchased Millipore; host or cells: baculovirus in Sf21 cells
Outline: (§1)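 Read-out was time-resolved fluorescence, corrected for a minus-enzyme blank and converted to percent activity relative to enzyme without drug. They were stopped with EDTA.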

PKCθ = target: T2, PKCθ (Homo sapiens, UniProt Q04759); assay: In vitro enzyme assay (time-resolved fluorescence kinase assay), PKCθ, 100 μM ATP; type: biochemical
T2 construct: His6; purchased Millipore; host or cells: baculovirus in Sf21 cells
T2 sequence (Q04759 whole entry): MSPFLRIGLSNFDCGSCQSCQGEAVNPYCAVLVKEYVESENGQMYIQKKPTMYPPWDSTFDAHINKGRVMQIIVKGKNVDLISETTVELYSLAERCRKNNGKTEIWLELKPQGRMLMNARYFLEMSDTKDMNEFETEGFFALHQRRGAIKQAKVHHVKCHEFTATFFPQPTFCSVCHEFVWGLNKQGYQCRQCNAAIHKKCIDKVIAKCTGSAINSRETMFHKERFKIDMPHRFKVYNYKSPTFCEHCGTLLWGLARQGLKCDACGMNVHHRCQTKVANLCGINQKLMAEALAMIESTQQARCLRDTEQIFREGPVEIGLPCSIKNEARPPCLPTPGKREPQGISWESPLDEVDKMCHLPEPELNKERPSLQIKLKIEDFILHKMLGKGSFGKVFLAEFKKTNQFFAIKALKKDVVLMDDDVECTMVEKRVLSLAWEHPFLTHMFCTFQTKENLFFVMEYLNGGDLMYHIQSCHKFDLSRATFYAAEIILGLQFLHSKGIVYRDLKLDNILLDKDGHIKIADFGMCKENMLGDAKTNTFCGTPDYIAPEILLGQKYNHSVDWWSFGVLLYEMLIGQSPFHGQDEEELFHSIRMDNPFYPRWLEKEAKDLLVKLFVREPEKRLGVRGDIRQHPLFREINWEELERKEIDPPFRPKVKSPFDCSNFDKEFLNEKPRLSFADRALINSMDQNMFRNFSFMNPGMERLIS
Outline: as §1

Row | Structure (SMILES) | EC50 [1] [µM] | IC50 (PKCα) [µM] | IC50 (PKCθ) [µM]
1 | CC1C(=O)NN=C2COc3cc(-c4ccoc4)c(N(C)C4(C)CN(C)C4)cc3N21 (stereo not drawn) [Example 173] | 0.25 to 1 | 1 to 10 | < 0.25
2 | CC1C(=O)NN=C2COc3ccc(N4CCCC4CN)cc3N21 (stereo not drawn) [Example 117, 6-(2-Aminomethyl-pyrrolidin-1-yl)-4-methyl-2,10-dihydro-9-oxa-1,2,4a-triaza-phenanthren-3-one trifluoroacetic acid] | 0.25 to 1 | 1 to 10 | < 0.25
3 | CC1C(=O)NN=C2COc3cc(F)c(OC4CNC4)cc3N21 (stereo not drawn) [Example 123, 9-(Azetidin-3-yloxy)-8-fluoro-1-methyl-3,5-dihydrobenzo[5,6][1,4]oxazino[3,4-c][1,2,4]triazin-2(1H)-one trifluoroacetic acid] | 1 to 10 | 1 to 10 | 0.25 to 1
4 | C[C@H]1C(=O)NN=C2COc3cc(-c4ccccc4)c(NC4CNC4)cc3N21 (single isomer, unassigned) [Example 1-2, trifluoroacetic acid] | 1 to 10 | 1 to 10 | 0.25 to 1
5 | CC1C(=O)NN=C2COc3cc4ccn(C5CN(C)C5)c4cc3N21 (stereo not drawn) [compound 161] | 0.25 to 1 | 1 to 10 | < 0.25
6 | C[C@H](c1ccc2c(c1)N1C(=NNC(=O)[C@H]1C)CO2)C1CNC1 [Example 110] | 0.25 to 1 | 1 to 10 | 0.25 to 1
7 | C[C@@H]1CN(CCO)CC[C@@H]1c1cc2c(cc1-c1ccccc1F)OCC1=NNC(=O)[C@@H](C)N12 [Example 207] | 0.25 to 1 | 1 to 10 | < 0.25
8 | C[C@@H]1C(=O)NN=C2COc3cc(-c4ccccc4F)c([C@@H](C)C4(C)CN(CC5COC5)C4)cc3N21 [Example 144] | 0.25 to 1 | 1 to 10 | < 0.25
9 | CC1C(=O)NN=C2COc3cc4ccn(C5CCCNC5)c4cc3N21 (stereo not drawn) [Example 152] | 0.25 to 1 | 1 to 10 | < 0.25
10 | Cc1cc(F)cc(-c2cc3c(cc2NC2CNC2)N2C(=NNC(=O)C2C)CO3)c1 (racemic) [Example 33] | 0.25 to 1 | 1 to 10 | < 0.25
11 | Cc1cc2c(cc1NC1CNC1)N1C(=NNC(=O)C1C)CO2 (stereo not drawn) [Example 122, 9-(Azetidin-3-ylamino)-1,8-dimethyl-3,5-dihydrobenzo[5,6][1,4]oxazino[3,4-c][1,2,4]triazin-2(1H)-one ditrifluoroacetic acid] | 1 to 10 | 1 to 10 | < 0.25
12 | C[C@@H]1C(=O)NN=C2COc3ccc([C@H](C)C4CNC4)cc3N21 [Example 111] | 0.25 to 1 | 1 to 10 | < 0.25
13 | C[C@@H]1C(=O)NN=C2COc3cc4ccn([C@@H]5CCNC5)c4cc3N21 [Example 151-2, (R)-1-Methyl-10-(R)-pyrrolidin-3-yl-3,5-dihydro-10H-6-oxa-3,4,10,11b-tetraaza-cyclopenta[b]phenanthren-2-one hydrochloric acid] | 0.25 to 1 | 1 to 10 | < 0.25
14 | CC1C(=O)NN=C2COc3cc(-c4ccccc4)c(NC4(C)CNC4)cc3N21 (stereo not drawn) [Example 79, 4-Methyl-6-(3-methyl-azetidin-3-ylamino)-7-phenyl-2,10-dihydro-9-oxa-1,2,4a-triaza-phenanthren-3-one trifluoroacetic acid] | 1 to 10 | 1 to 10 | 0.25 to 1
15 | C[C@@H]1C(=O)NN=C2COc3cc(-c4c(F)cccc4F)c(C4CCNCC4)cc3N21 [Example 213] | < 0.25 | 1 to 10 | < 0.25
16 | [2H]c1cn(C2(C)CNC2)c2cc3c(cc12)OCC1=NNC(=O)C(C)N13 (stereo not drawn) [Example 149, 8-Deuterated-1-methyl-10-(3-methyl-azetidin-3-yl)-3,5-dihydro-10H-6-oxa-3,4,10,11b-tetraaza-cyclopenta[b]phenanthren-2-one hydrochloride] | < 0.25 | 1 to 10 | < 0.25
17 | CC(C)c1cc2c(cc1OC1(C)CNC1)N1C(=NNC(=O)[C@H]1C)CO2 (single isomer, unassigned) [Example 121-2, trifluoroacetic acid] | 1 to 10 | 1 to 10 | 0.25 to 1
18 | C[C@@H]1C(=O)NN=C2COc3cc(-c4ccccc4C(C)(C)O)c([C@@H](C)C4(C)CN(C)C4)cc3N21 [Example 137, (R)-6-[(R)-1-(1,3-Dimethyl-azetidin-3-yl)-ethyl]-7-[2-(1-hydroxy-1-methyl-ethyl)-phenyl]-4-methyl-2,10-dihydro-9-oxa-1,2,4a-triaza-phenanthren-3-one] | 0.25 to 1 | 1 to 10 | < 0.25
19 | CC1C(=O)NN=C2COc3cc(C4CC4)c(C4CCNCC4)cc3N21 (stereo not drawn) [Example 77, 7-Cyclopropyl-4-methyl-6-piperidin-4-yl-2,10-dihydro-9-oxa-1,2,4a-triaza-phenanthren-3-one trifluoroacetic acid] | 0.25 to 1 | 1 to 10 | < 0.25
20 | CC[C@@H]1CNCCN1c1cc2c(cc1-c1ccccc1F)OCC1=NNC(=O)[C@@H](C)N12 [Example 226] | 0.25 to 1 | 0.25 to 1 | < 0.25
21 | Cc1ccccc1-c1cc2c(cc1NC1CNC1)N1C(=NNC(=O)C1C)CO2 (racemic) [Example 48] | < 0.25 | 1 to 10 | < 0.25
22 | COCc1ccccc1-c1cc2c(cc1N(C)C1(C)CN(C)C1)N1C(=NNC(=O)[C@H]1C)CO2 [Example 181] | 0.25 to 1 | 1 to 10 | < 0.25

Second part, the molecule after the results:

Row | EC50 [1] [µM] | IC50 (PKCα) [µM] | IC50 (PKCθ) [µM] | Structure (SMILES)
23 | < 0.25 | 1 to 10 | < 0.25 | C[C@@H]1C(=O)NN=C2COc3cc(C4CC4)c(NC4CNC4)cc3N21 (single isomer, unassigned) [Example 64-1, trifluoroacetic acid]
24 | < 0.25 | 1 to 10 | < 0.25 | Cc1cc(F)ccc1-c1cc2c(cc1NC1CNC1)N1C(=NNC(=O)C1C)CO2 (racemic) [Example 13]
25 | < 0.25 | 0.25 to 1 | < 0.25 | C[C@@H]1CNCCN1c1cc2c(cc1-c1ccccc1F)OCC1=NNC(=O)[C@@H](C)N12 [Example 223]
26 | < 0.25 | 1 to 10 | < 0.25 | CC1C(=O)NN=C2COc3cc(-c4ccc(Cl)cc4Cl)c(NC4CNC4)cc3N21 (racemic) [Example 43]
27 | < 0.25 | 0.25 to 1 | < 0.25 | CC1C(=O)NN=C2COc3cc(-c4ccccc4)c(N(C)C4(C)CN(Cc5ccccc5)C4)cc3N21 (stereo not drawn) [Example 92]
28 | < 0.25 | 1 to 10 | < 0.25 | CC1C(=O)NN=C2COc3cc(C(C)C(F)(F)F)c(NC4(C)CNC4)cc3N21 (stereo not drawn) [Example 63]
29 | < 0.25 | 1 to 10 | < 0.25 | Cc1ccccc1-c1cc2c(cc1NC1CNC1)N1C(=NNC(=O)[C@H]1C)CO2 [Example 5]
30 | < 0.25 | 1 to 10 | < 0.25 | CC(C)c1cc2c(cc1C1CCN(C)CC1)N1C(=NNC(=O)[C@H]1C)CO2 [Example 219]
31 | < 0.25 | 1 to 10 | < 0.25 | Cc1cc2c(cc1N1CCC13CCNCC3)N1C(=NNC(=O)C1C)CO2 (stereo not drawn) [Example 115, 1,8-Dimethyl-9-(1,7-diazaspiro[3.5]nonan-1-yl)-3,5-dihydrobenzo[5,6][1,4]oxazino[3,4-c][1,2,4]triazin-2(1H)-one trifluoroacetic acid]
32 | < 0.25 | 1 to 10 | < 0.25 | Cc1ccc(-c2cc3c(cc2NC2CNC2)N2C(=NNC(=O)C2C)CO3)cc1 (racemic) [Example 29]
33 | < 0.25 | 0.25 to 1 | < 0.25 | C[C@@H]1C(=O)NN=C2COc3cc(-c4ccccc4F)c(N(C)C4(C)CN(C(=O)CCN(C)C)C4)cc3N21 [Example 185]
34 | < 0.25 | 0.25 to 1 | < 0.25 | C[C@@H]1C(=O)NN=C2COc3cc(-c4ccccc4F)c(N4CCN[C@@H](C)C4)cc3N21 [Example 225]
35 | < 0.25 | 1 to 10 | < 0.25 | C[C@@H]1C(=O)NN=C2COc3cc(-c4cccc5ccccc45)c(NC4CNC4)cc3N21 [Example 10]
36 | < 0.25 | 1 to 10 | < 0.25 | CC1C(=O)NN=C2COc3cc(-c4ccccc4)c(OC4CNC4)cc3N21 (stereo not drawn) [Example 66]
37 | < 0.25 | 1 to 10 | 0.25 to 1 | CC1C(=O)NN=C2COc3cc(-c4cccc(C(F)(F)F)c4)c(NC4CNC4)cc3N21 (racemic) [Example 24]
38 | < 0.25 | 1 to 10 | < 0.25 | C[C@@H]1C(=O)NN=C2COc3cc(-c4ccccc4F)c([C@@H]4CCNC4)cc3N21 [Example 215]
39 | < 0.25 | 1 to 10 | 0.25 to 1 | CC1C(=O)NN=C2COc3cc(-c4ccc(C(F)(F)F)cc4)c(NC4CNC4)cc3N21 (racemic) [Example 14]
40 | < 0.25 | 1 to 10 | < 0.25 | C[C@@H]1C(=O)NN=C2COc3cc4c(cc3N21)N(C1(C)CNC1)CC4 [Example 159, 1-Methyl-10-(3-methyl-azetidin-3-yl)-3,5,9,10-tetrahydro-8H-6-oxa-3,4,10,11b-tetraaza-cyclopenta[b]phenanthren-2-one hydrochloride]
41 | < 0.25 | 1 to 10 | < 0.25 | C[C@@H]1C(=O)NN=C2COc3cc(-c4ccccc4Cl)c(C4CCNCC4)cc3N21 [Example 210]
42 | < 0.25 | 1 to 10 | < 0.25 | CC1C(=O)NN=C2CSc3ccc(NC4CNC4)cc3N21 (stereo not drawn) [Example 97, 6-(Azetidin-3-ylamino)-4-methyl-2,10-dihydro-9-thia-1,2,4a-triaza-phenanthren-3-one hydrochloric acid salt]
